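A five-concentration, 48-hour dose response in 96-well plates underlies each endpoint, interpolated linearly between surrounding concentrations. Abbreviation: GI50, concentration required for 50% inhibition of growth. At the TGI there is no net growth.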
Assays:
Assay in all cases: DTP human tumour cell line panel, 48 h
HCT-116 colon = tested on: HCT-116 colon
T-47D breast = tested on: T-47D breast
SN12C renal = tested on: SN12C renal
HL-60(TB) leukemia = tested on: HL-60(TB) leukemia
LOX IMVI melanoma = tested on: LOX IMVI melanoma
786-0 renal = tested on: 786-0 renal
SR leukemia = tested on: SR leukemia
OVCAR-4 ovarian = tested on: OVCAR-4 ovarian
OVCAR-5 ovarian = tested on: OVCAR-5 ovarian
IGROV1 ovarian = tested on: IGROV1 ovarian
HOP-62 NSCLC = tested on: HOP-62 NSCLC
SNB-19 CNS = tested on: SNB-19 CNS
HOP-92 NSCLC = tested on: HOP-92 NSCLC
A549 NSCLC = tested on: A549 NSCLC
U251 CNS = tested on: U251 CNS
M14 melanoma = tested on: M14 melanoma
SK-MEL-5 melanoma = tested on: SK-MEL-5 melanoma
MOLT-4 leukemia = tested on: MOLT-4 leukemia
NCI-H226 lung = tested on: NCI-H226 lung
MDA-MB-435 = tested on: MDA-MB-435
MALME-3M melanoma = tested on: MALME-3M melanoma
HS 578T breast = tested on: HS 578T breast
HCC-2998 colon = tested on: HCC-2998 colon
SK-MEL-28 melanoma = tested on: SK-MEL-28 melanoma
NCI-H522 lung = tested on: NCI-H522 lung
HT29 colon = tested on: HT29 colon
EKVX NSCLC = tested on: EKVX NSCLC
CCRF-CEM leukemia = tested on: CCRF-CEM leukemia
SNB-75 CNS = tested on: SNB-75 CNS
OVCAR-3 ovarian = tested on: OVCAR-3 ovarian
MDA-MB-231 breast = tested on: MDA-MB-231 breast
BT-549 breast = tested on: BT-549 breast
SK-OV-3 ovarian = tested on: SK-OV-3 ovarian
K-562 leukemia = tested on: K-562 leukemia
NCI-H460 lung = tested on: NCI-H460 lung
CAKI-1 renal = tested on: CAKI-1 renal
ACHN renal = tested on: ACHN renal
SF-268 CNS = tested on: SF-268 CNS
SF-539 CNS = tested on: SF-539 CNS
SW-620 colon = tested on: SW-620 colon
NCI-H23 lung = tested on: NCI-H23 lung
UACC-257 melanoma = tested on: UACC-257 melanoma
MCF7 breast = tested on: MCF7 breast
UO-31 renal = tested on: UO-31 renal
SF-295 CNS = tested on: SF-295 CNS
RPMI-8226 leukemia = tested on: RPMI-8226 leukemia
HCT-15 colon = tested on: HCT-15 colon
PC-3 prostate = tested on: PC-3 prostate
UACC-62 melanoma = tested on: UACC-62 melanoma
SK-MEL-2 melanoma = tested on: SK-MEL-2 melanoma
COLO 205 colon = tested on: COLO 205 colon
DU-145 prostate = tested on: DU-145 prostate
OVCAR-8 ovarian = tested on: OVCAR-8 ovarian
KM12 colon = tested on: KM12 colon
NCI/ADR-RES ovarian = tested on: NCI/ADR-RES ovarian
TK-10 renal = tested on: TK-10 renal
A498 renal = tested on: A498 renal

In the case of `O=c1c(F)cn(Cc2ccccc2CCl)c(=O)n1Cc1ccccc1CCl`, the GI50 (HCT-116 colon) is reported as 1110 nM, the TGI (HCT-116 colon) is reported as 2840 nM and the GI50 (T-47D breast) is reported as 1570 nM. It also gave a TGI (T-47D breast) of 4110 nM, a GI50 (SN12C renal) of 2750 nM and a TGI (SN12C renal) of 10400 nM. It also gave a GI50 (HL-60(TB) leukemia) of 1510 nM, a TGI (HL-60(TB) leukemia) of 3630 nM and a GI50 (LOX IMVI melanoma) of 1230 nM. For the same compound, the TGI (LOX IMVI melanoma) was 2780 nM, the GI50 (786-0 renal) was 2090 nM and the TGI (786-0 renal) was 4440 nM. It also gave a GI50 (SR leukemia) of 796 nM, a TGI (SR leukemia) of 3070 nM and a GI50 (OVCAR-4 ovarian) of 3500 nM. For the same compound, the TGI (OVCAR-4 ovarian) was 12800 nM, the GI50 (OVCAR-5 ovarian) was 5070 nM and the TGI (OVCAR-5 ovarian) was 11000 nM. It also gave a GI50 (IGROV1 ovarian) of 1330 nM, a TGI (IGROV1 ovarian) of 2990 nM and a GI50 (HOP-62 NSCLC) of 2350 nM. It also gave a TGI (HOP-62 NSCLC) of 4840 nM, a GI50 (SNB-19 CNS) of 3500 nM and a TGI (SNB-19 CNS) of 13300 nM. The GI50 (HOP-92 NSCLC) was 2350 nM, the TGI (HOP-92 NSCLC) was 6850 nM and the GI50 (A549 NSCLC) was 1830 nM. It also gave a TGI (A549 NSCLC) of 4290 nM, a GI50 (U251 CNS) of 1550 nM and a TGI (U251 CNS) of 3490 nM. For the same compound, the GI50 (M14 melanoma) was 1690 nM, the TGI (M14 melanoma) was 4050 nM and the GI50 (SK-MEL-5 melanoma) was 1650 nM. It also gave a TGI (SK-MEL-5 melanoma) of 3440 nM, a GI50 (MOLT-4 leukemia) of 1770 nM and a TGI (MOLT-4 leukemia) of 4690 nM. For the same compound, the GI50 (NCI-H226 lung) was 539 nM, the TGI (NCI-H226 lung) was 2710 nM and the GI50 (MDA-MB-435) was 1680 nM. The TGI (MDA-MB-435) was 3400 nM, the GI50 (MALME-3M melanoma) was 2200 nM and the TGI (MALME-3M melanoma) was 4590 nM. The GI50 (HS 578T breast) was 1920 nM, the TGI (HS 578T breast) was 6930 nM and the GI50 (HCC-2998 colon) was 2090 nM. The TGI (HCC-2998 colon) was 4470 nM, the GI50 (SK-MEL-28 melanoma) was 1400 nM and the TGI (SK-MEL-28 melanoma) was 3320 nM. It also gave a GI50 (NCI-H522 lung) of 1450 nM, a TGI (NCI-H522 lung) of 3010 nM and a GI50 (HT29 colon) of 2010 nM. The TGI (HT29 colon) was 4710 nM, the GI50 (EKVX NSCLC) was 3070 nM and the TGI (EKVX NSCLC) was 9220 nM. For the same compound, the GI50 (CCRF-CEM leukemia) was 1040 nM, the TGI (CCRF-CEM leukemia) was 3500 nM and the GI50 (SNB-75 CNS) was 1970 nM. It also gave a TGI (SNB-75 CNS) of 6360 nM, a GI50 (OVCAR-3 ovarian) of 1540 nM and a TGI (OVCAR-3 ovarian) of 3070 nM. For the same compound, the GI50 (MDA-MB-231 breast) was 1930 nM, the TGI (MDA-MB-231 breast) was 4920 nM and the GI50 (BT-549 breast) was 1410 nM. It also gave a TGI (BT-549 breast) of 2910 nM, a GI50 (SK-OV-3 ovarian) of 5880 nM and a TGI (SK-OV-3 ovarian) of 15100 nM. The GI50 (K-562 leukemia) was 1890 nM, the TGI (K-562 leukemia) was over 100000 nM and the GI50 (NCI-H460 lung) was 2080 nM. The TGI (NCI-H460 lung) was 4900 nM, the GI50 (CAKI-1 renal) was 1710 nM and the TGI (CAKI-1 renal) was 3580 nM. The GI50 (ACHN renal) was 1580 nM, the TGI (ACHN renal) was 3040 nM and the GI50 (SF-268 CNS) was 2040 nM. The TGI (SF-268 CNS) was 4810 nM, the GI50 (SF-539 CNS) was 2060 nM and the TGI (SF-539 CNS) was 4730 nM. The GI50 (SW-620 colon) was 1450 nM, the TGI (SW-620 colon) was 3730 nM and the GI50 (NCI-H23 lung) was 2420 nM. For the same compound, the TGI (NCI-H23 lung) was 7050 nM, the TGI (UACC-257 melanoma) was 2440 nM and the GI50 (MCF7 breast) was 1160 nM. The TGI (MCF7 breast) was 6110 nM, the GI50 (UO-31 renal) was 1990 nM and the TGI (UO-31 renal) was 5300 nM. The GI50 (SF-295 CNS) was 2140 nM, the TGI (SF-295 CNS) was 6160 nM and the GI50 (RPMI-8226 leukemia) was 795 nM. For the same compound, the TGI (RPMI-8226 leukemia) was 8460 nM, the GI50 (HCT-15 colon) was 1830 nM and the TGI (HCT-15 colon) was 4450 nM. It also gave a GI50 (PC-3 prostate) of 2540 nM, a TGI (PC-3 prostate) of 8830 nM and a GI50 (UACC-62 melanoma) of 1330 nM. For the same compound, the TGI (UACC-62 melanoma) was 2940 nM, the GI50 (SK-MEL-2 melanoma) was 1540 nM and the TGI (SK-MEL-2 melanoma) was 3050 nM. It also gave a GI50 (COLO 205 colon) of 1700 nM, a TGI (COLO 205 colon) of 3520 nM and a GI50 (DU-145 prostate) of 1790 nM. It also gave a TGI (DU-145 prostate) of 3420 nM, a GI50 (OVCAR-8 ovarian) of 977 nM and a TGI (OVCAR-8 ovarian) of 2990 nM. It also gave a GI50 (KM12 colon) of 1740 nM, a TGI (KM12 colon) of 3680 nM and a GI50 (NCI/ADR-RES ovarian) of 2970 nM. For the same compound, the TGI (NCI/ADR-RES ovarian) was 11800 nM, the GI50 (TK-10 renal) was 2150 nM and the TGI (TK-10 renal) was 5440 nM. It also gave a GI50 (A498 renal) of 1580 nM and a TGI (A498 renal) of 5970 nM.

Reference: PubChem BioAssay (NCI)
